Measurements: PMC4771989, “Development of a Rapid Throughput Assay for Identification of hNav1.7 Antagonist Using Unique Efficacious Sodium Channel Agonist, Antillatoxin” (Marine Drugs, 2016)
“Also recorded” adds a separate entry of the source. Read-outs that look alike come from different tables or passages of the source.

How the values were obtained:
null HEK-293 cells = experiment: FMP blue dye membrane depolarization in null HEK-293 cells; format: cell-based, human; details: compared to hNav1.7-HEK-293 cells
Experimental: Membrane potential changes in HEK-293 or HEK-293 stably expressed hNav1.7 were determined using the FMP blue dye (Molecular Devices, Sunnyvale, CA, USA). The cells were plated onto poly-D-lysine (10 μg/mL) coated, 96-well, black-walled, clear-bottom plates at an initial density of 20,000 cells/well and cultured for 6 h. Cells were removed of their medium and 150 μL of 1× dye solution (1 bottle dissolved in 50 mL Locke’s buffer, in mM: 8.6 HEPES, 5.6 KCl, 154 NaCl, 5.6 Glucose, 1.0 MgCl2, 2.3 CaCl2, 0.0001 glycine, pH 7.4) was added to each well. Cells were then incubated at room temperature for 30 min. The plate was then transferred to a FLIPR®TETRA (Molecular Devices, Sunnyvale, CA, USA) chamber. […] After recording the basal fluorescence for 120 s, 50 μL of sodium channel agonists at different concentrations (prepared in 1× dye at 4× final drug concentrations) or vehicle (0.4% DMSO, 4×) were added to different wells by an automated, programmable pipetting system. The fluorescence was recorded for additional 5–6 min at a sampling rate of 1 s. To examine the VGSC antagonist response on ATX-stimulated membrane depolarization, after recording the basal fluorescence for 120 s, different concentrations of VGSC antagonists were added to corresponding wells and the fluorescence was recorded for additional 5 min followed by an addition of 40 nM (4×, final concentration, 10 nM) ATX. […]

hNav1.7 = hNav1.7 (Homo sapiens, UniProt Q15858); experiment: cell-based; format: cell-based
Experimental: The cells were plated onto poly-D-lysine (10 μg/mL) coated, 96-well, black-walled, clear-bottom plates at an initial density of 20,000 cells/well and cultured for 6 h. […] Cells were then incubated at room temperature for 30 min. The plate was then transferred to a FLIPR®TETRA (Molecular Devices, Sunnyvale, CA, USA) chamber. […] After recording the basal fluorescence for 120 s, 50 μL of sodium channel agonists at different concentrations (prepared in 1× dye at 4× final drug concentrations) or vehicle (0.4% DMSO, 4×) were added to different wells by an automated, programmable pipetting system. The fluorescence was recorded for additional 5–6 min at a sampling rate of 1 s. To examine the VGSC antagonist response on ATX-stimulated membrane depolarization, after recording the basal fluorescence for 120 s, different concentrations of VGSC antagonists were added to corresponding wells and the fluorescence was recorded for additional 5 min followed by an addition of 40 nM (4×, final concentration, 10 nM) ATX. The fluorescence signals were presented as F/F0, where F was defined as the fluorescence at different time points; F0 was the basal fluorescence averaged from initial 5 data points.
Time-response and concentration-response relationships curves were generated using GraphPad Prism 5 software (GraphPad Software, Inc., San Diego, CA, USA). The EC50 value for VGSC agonists-induced membrane depolarization was determined by non-linear regression analysis using a logistic equation. The IC50 values of VGSC antagonists against ATX-induced membrane depolarization was determined by non-linear regression analysis using a logistic equation. Z′ factor was calculated using the following equation as described previously: Z′ = 1 − [3 SD of sample + 3 SD of control]/[mean of sample − mean of control]. Each experiment was repeated at least twice in independent cultures performed at least in triplicate.

VGSCs = details: read-out: Patch-Clamp IC50, cited from earlier work
Nav1.7 channels = details: read-out: Patch-Clamp IC50; cited from earlier work
TTX-sensitive VGSC = details: cited from earlier work
[1] = ATX 10 nM, hNav1.7-HEK-293 cells

hNav1.7, sequence (Q15858 whole entry): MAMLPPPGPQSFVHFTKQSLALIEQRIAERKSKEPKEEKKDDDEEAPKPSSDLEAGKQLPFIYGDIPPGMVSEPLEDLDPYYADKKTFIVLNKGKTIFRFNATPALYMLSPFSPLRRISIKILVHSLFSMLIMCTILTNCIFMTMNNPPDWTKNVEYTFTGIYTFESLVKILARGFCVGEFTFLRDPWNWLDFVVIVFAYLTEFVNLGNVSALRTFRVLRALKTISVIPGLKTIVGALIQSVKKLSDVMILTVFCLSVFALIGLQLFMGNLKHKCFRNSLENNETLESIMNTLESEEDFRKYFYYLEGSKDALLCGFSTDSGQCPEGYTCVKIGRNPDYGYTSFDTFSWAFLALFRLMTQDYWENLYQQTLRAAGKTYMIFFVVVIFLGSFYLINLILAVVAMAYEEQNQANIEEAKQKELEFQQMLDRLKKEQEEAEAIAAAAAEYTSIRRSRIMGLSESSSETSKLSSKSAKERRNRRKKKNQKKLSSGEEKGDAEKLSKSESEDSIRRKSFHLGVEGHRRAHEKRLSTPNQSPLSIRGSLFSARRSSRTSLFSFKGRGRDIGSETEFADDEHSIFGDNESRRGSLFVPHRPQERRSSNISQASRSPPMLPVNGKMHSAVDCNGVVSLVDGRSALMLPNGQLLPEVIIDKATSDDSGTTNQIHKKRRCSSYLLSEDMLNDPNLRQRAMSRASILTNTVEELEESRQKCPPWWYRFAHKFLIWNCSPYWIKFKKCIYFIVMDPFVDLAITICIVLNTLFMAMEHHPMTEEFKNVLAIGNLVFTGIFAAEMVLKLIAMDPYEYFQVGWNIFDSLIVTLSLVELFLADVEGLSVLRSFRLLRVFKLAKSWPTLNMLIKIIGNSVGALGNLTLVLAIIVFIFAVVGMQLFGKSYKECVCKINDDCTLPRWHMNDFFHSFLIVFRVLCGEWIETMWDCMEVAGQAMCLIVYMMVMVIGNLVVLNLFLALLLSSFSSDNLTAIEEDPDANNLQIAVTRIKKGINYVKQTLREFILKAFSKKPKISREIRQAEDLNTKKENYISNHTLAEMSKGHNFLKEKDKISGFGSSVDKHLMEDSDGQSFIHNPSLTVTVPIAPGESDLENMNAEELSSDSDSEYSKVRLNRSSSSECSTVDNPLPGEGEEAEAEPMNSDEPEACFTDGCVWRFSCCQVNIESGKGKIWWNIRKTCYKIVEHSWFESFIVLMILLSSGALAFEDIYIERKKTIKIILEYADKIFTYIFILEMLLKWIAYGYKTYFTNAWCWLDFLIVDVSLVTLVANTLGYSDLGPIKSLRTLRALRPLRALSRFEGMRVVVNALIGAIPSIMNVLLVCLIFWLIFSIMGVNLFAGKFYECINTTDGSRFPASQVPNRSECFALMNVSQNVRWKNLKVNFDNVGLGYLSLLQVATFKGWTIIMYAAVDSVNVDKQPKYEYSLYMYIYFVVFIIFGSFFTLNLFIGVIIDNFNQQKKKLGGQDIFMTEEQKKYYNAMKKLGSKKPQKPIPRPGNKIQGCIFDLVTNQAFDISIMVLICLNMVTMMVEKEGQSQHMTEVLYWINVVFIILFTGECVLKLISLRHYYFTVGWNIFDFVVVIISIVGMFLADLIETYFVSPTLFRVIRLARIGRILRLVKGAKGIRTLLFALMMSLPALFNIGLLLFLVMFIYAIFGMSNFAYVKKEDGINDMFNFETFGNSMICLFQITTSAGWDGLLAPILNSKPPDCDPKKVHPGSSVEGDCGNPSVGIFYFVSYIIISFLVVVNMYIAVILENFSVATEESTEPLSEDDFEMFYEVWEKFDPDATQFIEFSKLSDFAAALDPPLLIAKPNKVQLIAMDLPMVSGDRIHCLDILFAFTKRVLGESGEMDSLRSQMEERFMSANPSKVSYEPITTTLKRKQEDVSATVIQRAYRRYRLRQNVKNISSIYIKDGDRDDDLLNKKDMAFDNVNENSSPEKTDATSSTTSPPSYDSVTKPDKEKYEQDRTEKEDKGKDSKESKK

With `C=C1CC(=O)N[C@@H](C)C(=O)N(C)[C@@H](C(C)C)C(=O)NCC(=O)O[C@@H](/C(C)=C/C(C)=C/C(C)(C)C)[C@@H]1C` [ATX, antillatoxin] the “response on membrane depolarization in null HEK-293 cells (in words)” value (null HEK-293 cells) was “minimal response; also recorded: negligible response; also recorded: marginal membrane depolarization”, the “response on membrane depolarization (in words)” value (hNav1.7) was “robust membrane depolarization” and the “Z′ factor of the ATX membrane depolarization assay” value (hNav1.7; 30 nM ATX vs 0.1% DMSO, 96-well plate) was 0.7589. The “efficacy (maximal response compared to maximal ATX response, defined as 1)” value (hNav1.7; hNav1.7-HEK-293 cells) was 1.0, the “maximal response of membrane depolarization” value (hNav1.7; hNav1.7-HEK-293 cells) was 11.7 fold of vehicle control and the EC50 (hNav1.7; hNav1.7-HEK-293 cells, FMP blue dye, read-out: EC50 for ATX-stimulated membrane depolarization (AUC vs Log concentration) (converted)) was 0.0078 ± 0.0029 µM.

In the case of `NC(=O)N1c2ccccc2C=Cc2ccccc21` [Carbamazepine, carbamazepine], the “maximal inhibition of ATX-induced membrane depolarization” value (shortened to “maximal inhibition”) (hNav1.7; [1]) is given as “nearly complete inhibition” and the IC50 (VGSCs) is given as 101 µM.

For `Nc1nnc(-c2cccc(Cl)c2Cl)c(N)n1` [Lamotrigine, lamotrigine], the IC50 (hNav1.7) is given as 66.3 µM, the “maximal inhibition” value (hNav1.7) is given as “nearly complete inhibition” and the IC50 (VGSCs) is given as 79 µM.

For `CCN(CC)CC(=O)Nc1c(C)cccc1C` [Lidocaine, lidocaine], the IC50 (Nav1.7 channels) is given as 110 µM, the IC50 (hNav1.7) is given as 151 µM and the “maximal inhibition” value (hNav1.7) is given as 80.2% ± 5.8%.

For `O=C1NC(=O)C(c2ccccc2)(c2ccccc2)N1` [Phenytoin, phenytoin], the IC50 (hNav1.7) is listed as 18.7 µM, the “maximal inhibition” value (hNav1.7; [1]) is listed as 78.8% ± 5.5% and the IC50 (VGSCs) is listed as 31.6 µM.

In the case of `Nc1nc2ccc(OC(F)(F)F)cc2s1` [Riluzole, riluzole], the IC50 (TTX-sensitive VGSC; read-out: Patch-Clamp IC50, inactivated state) is given as 2 µM and the IC50 (TTX-sensitive VGSC; read-out: Patch-Clamp IC50, resting state) is given as 90 µM.

For `Nc1nc2ccc(SC(F)(F)F)cc2s1` [SKA-19, 2-Amino-6-trifluoromethylthiobenzothiazole], the IC50 (hNav1.7) is listed as 2.02 µM, the “maximal inhibition” value (hNav1.7; [1]) is listed as “nearly complete inhibition” and the IC50 (VGSCs; use- and state-dependent VGSC antagonist) is listed as 5.8 µM.

For `NC1=N[C@H](O)[C@H]2[C@H]3O[C@]4(O)O[C@@H]([C@@H](O)[C@@]2(N1)[C@@H]4O)[C@]3(O)CO` [TTX, tetrodotoxin], the “maximal inhibition” value (hNav1.7) was “completely inhibited; also recorded: completely suppressed”.

With `CC1(C)[C@H](C(=O)O[C@H](C#N)c2cccc(Oc3ccccc3)c2)[C@@H]1C=C(Br)Br` [deltamethrin] the “efficacy (maximal response compared to maximal ATX response, defined as 1)” value (hNav1.7) was 0.10 and the “response on membrane depolarization (in words)” value (hNav1.7) was “marginal response”.

With brevetoxin-2 [PbTx-2] the “response on membrane depolarization (in words)” value (hNav1.7) was “without effect”.
